In the supplement of paper PMC9663587:

Key:
[1] = compound: CC(=O)c1c(C)c2cnc(Nc3ccc(N4CCN(CCOCCOCCOCCNC(=O)COc5cccc6c5C(=O)N(C5CCC(=O)NC5=O)C6=O)CC4)cn3)nc2n(C2CCCC2)c1=O [BSJ-03-123]; assay: increase in dead-cell fraction, 72 h; higher = more death;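 also: breast cancer cell lines in 384-well plates, stained with Hoechst plus LIVE/DEAD far red dye and imaged, cells above an LDR intensity threshold counted dead, Hoechst-negative corpses included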
[2] = compound: CC(=O)c1c(C)c2cnc(Nc3ccc(N4CCNCC4)cn3)nc2n(C2CCCC2)c1=O; assay: as above
[3] = compound: CCN1CCN(Cc2ccc(Nc3ncc(F)c(-c4cc(F)c5nc(C)n(C(C)C)c5c4)n3)nc2)CC1; assay: as above
[4] = compound: CCOc1cc2ncc(C#N)c(Nc3ccc(OCc4ccccn4)c(Cl)c3)c2cc1NC(=O)/C=C/CN(C)C [Neratinib/HKI272]; assay: as above
[5] = compound: CCc1cnn2c(NCc3ccc[n+]([O-])c3)cc(N3CCCC[C@H]3CCO)nc12; assay: as above
[6] = compound: CN(C)C(=O)c1cc2cnc(Nc3ccc(N4CCNCC4)cn3)nc2n1C1CCCC1 [LEE011/Ribociclib]; assay: as above
[7] = compound: T1, CN(C)C/C=C/C(=O)Nc1ccc(C(=O)Nc2cccc(Nc3ncc(Cl)c(-c4c[nH]c5ccccc45)n3)c2)cc1 [THZ1]; assay: as above
[8] = compound: T2, CN1CC[C@H](c2c(O)cc(O)c3c(=O)cc(-c4ccccc4Cl)oc23)[C@H](O)C1 [Flavopiridol]; assay: as above
[9] = compound: CC(=O)c1c(C)c2cnc(Nc3ccc(N4CCNCC4)cn3)nc2n(C2CCCC2)c1=O; assay: GR value, 72 h; higher = faster growth (1 = untreated, <0 = killing);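 also: breast cancer and non-malignant breast epithelial lines, nine half-log doses, viable cells counted by Hoechst and LIVE/DEAD dye imaging versus time-zero plates and DMSO controls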
[10] = compound: CN(C)C/C=C/C(=O)Nc1ccc(C(=O)N2CCC[C@@H](Nc3ncc(Cl)c(-c4c[nH]c5ccccc45)n3)C2)cc1 [THZ531]; assay: as above
[11] = compound: T1, THZ1; assay: as above
[12] = compound: T2, Flavopiridol; assay: as above

In the case of HCC38, the “increase in dead-cell fraction” value ([1]; 0.001 µM) was 0.0173, the “increase in dead-cell fraction” value ([1]; 0.003162 µM) was 0.0254 and the “increase in dead-cell fraction” value ([1]; 0.01 µM) was 0.0387. For the same cell line, the “increase in dead-cell fraction” value ([1]; 0.03162 µM) was 0.0378, the “increase in dead-cell fraction” value ([1]; 0.1 µM) was 0.0296 and the “increase in dead-cell fraction” value ([1]; 0.3162 µM) was 0.0344. For the same cell line, the “increase in dead-cell fraction” value ([1]; 1 µM) was 0.0408, the “increase in dead-cell fraction” value ([1]; 3.162 µM) was 0.0384 and the “increase in dead-cell fraction” value ([1]; 10 µM) was 0.172. For the same cell line, the “increase in dead-cell fraction” value ([2]; 0.0003162 µM) was 0.0028, the “increase in dead-cell fraction” value ([2]; 0.001 µM) was -0.0069 and the “increase in dead-cell fraction” value ([2]; 0.003162 µM) was 0.0044. The “increase in dead-cell fraction” value ([2]; 0.01 µM) was 0.0202, the “increase in dead-cell fraction” value ([2]; 0.03162 µM) was 0.0549 and the “increase in dead-cell fraction” value ([2]; 0.1 µM) was 0.0669. For the same cell line, the “increase in dead-cell fraction” value ([2]; 0.3162 µM) was 0.0676, the “increase in dead-cell fraction” value ([2]; 1 µM) was 0.0915 and the “increase in dead-cell fraction” value ([2]; 3.162 µM) was 0.0488. The “increase in dead-cell fraction” value ([3]; 0.001 µM) was 0.0177, the “increase in dead-cell fraction” value ([3]; 0.003162 µM) was 0.0096 and the “increase in dead-cell fraction” value ([3]; 0.01 µM) was 0.0258. The “increase in dead-cell fraction” value ([3]; 0.03162 µM) was 0.0545, the “increase in dead-cell fraction” value ([3]; 0.1 µM) was 0.0758 and the “increase in dead-cell fraction” value ([3]; 0.3162 µM) was 0.0601. The “increase in dead-cell fraction” value ([3]; 1 µM) was 0.0699, the “increase in dead-cell fraction” value ([3]; 3.162 µM) was 0.0988 and the “increase in dead-cell fraction” value ([3]; 10 µM) was 0.415. For the same cell line, the “increase in dead-cell fraction” value ([4]; 0.0003162 µM) was 0.0178, the “increase in dead-cell fraction” value ([4]; 0.001 µM) was 0.006 and the “increase in dead-cell fraction” value ([4]; 0.003162 µM) was 0.0166. The “increase in dead-cell fraction” value ([4]; 0.01 µM) was 0.0088, the “increase in dead-cell fraction” value ([4]; 0.03162 µM) was 0.0102 and the “increase in dead-cell fraction” value ([4]; 0.1 µM) was -0.0035. The “increase in dead-cell fraction” value ([4]; 0.3162 µM) was 0.0102, the “increase in dead-cell fraction” value ([4]; 1 µM) was 0.0009 and the “increase in dead-cell fraction” value ([4]; 3.162 µM) was 0.0842. For the same cell line, the “increase in dead-cell fraction” value ([5]; 0.0001 µM) was -0.0032, the “increase in dead-cell fraction” value ([5]; 0.0003162 µM) was -0.0125 and the “increase in dead-cell fraction” value ([5]; 0.001 µM) was -0.0108. For the same cell line, the “increase in dead-cell fraction” value ([5]; 0.003162 µM) was -0.0127, the “increase in dead-cell fraction” value ([5]; 0.01 µM) was 0.0353 and the “increase in dead-cell fraction” value ([5]; 0.03162 µM) was 0.436. The “increase in dead-cell fraction” value ([5]; 0.1 µM) was 0.514, the “increase in dead-cell fraction” value ([5]; 0.3162 µM) was 0.511 and the “increase in dead-cell fraction” value ([5]; 1 µM) was 0.536. For the same cell line, the “increase in dead-cell fraction” value ([6]; 0.001 µM) was -0.0042, the “increase in dead-cell fraction” value ([6]; 0.003162 µM) was 0.0013 and the “increase in dead-cell fraction” value ([6]; 0.01 µM) was 0.0118. The “increase in dead-cell fraction” value ([6]; 0.03162 µM) was 0.0031, the “increase in dead-cell fraction” value ([6]; 0.1 µM) was 0.0263 and the “increase in dead-cell fraction” value ([6]; 0.3162 µM) was 0.0209. For the same cell line, the “increase in dead-cell fraction” value ([6]; 1 µM) was 0.026, the “increase in dead-cell fraction” value ([6]; 3.162 µM) was 0.0204 and the “increase in dead-cell fraction” value ([6]; 10 µM) was 0.0467. The “increase in dead-cell fraction” value ([7]; 0.0001 µM) was -0.0033, the “increase in dead-cell fraction” value ([7]; 0.0003162 µM) was -0.0036 and the “increase in dead-cell fraction” value ([7]; 0.001 µM) was -0.0076. For the same cell line, the “increase in dead-cell fraction” value ([7]; 0.003162 µM) was -0.0032, the “increase in dead-cell fraction” value ([7]; 0.01 µM) was 0.0133 and the “increase in dead-cell fraction” value ([7]; 0.03162 µM) was 0.0431. The “increase in dead-cell fraction” value ([7]; 0.1 µM) was 0.249, the “increase in dead-cell fraction” value ([7]; 0.3162 µM) was 0.303 and the “increase in dead-cell fraction” value ([7]; 1 µM) was 0.593. For the same cell line, the “increase in dead-cell fraction” value ([8]; 0.0001 µM) was -0.0026, the “increase in dead-cell fraction” value ([8]; 0.0003162 µM) was -0.0024 and the “increase in dead-cell fraction” value ([8]; 0.001 µM) was -0.0081. The “increase in dead-cell fraction” value ([8]; 0.003162 µM) was 0.0129, the “increase in dead-cell fraction” value ([8]; 0.01 µM) was 0.0083 and the “increase in dead-cell fraction” value ([8]; 0.03162 µM) was 0.0066. The “increase in dead-cell fraction” value ([8]; 0.1 µM) was 0.0013, the “increase in dead-cell fraction” value ([8]; 0.3162 µM) was 0.112 and the “increase in dead-cell fraction” value ([8]; 1 µM) was 0.449. For the same cell line, the GR value ([9]; 0.0003162 µM) was 1.03 GR, the GR value ([9]; 0.001 µM) was 1.06 GR and the GR value ([9]; 0.003162 µM) was 0.926 GR. For the same cell line, the GR value ([9]; 0.01 µM) was 0.889 GR, the GR value ([9]; 0.03162 µM) was 0.604 GR and the GR value ([9]; 0.1 µM) was 0.398 GR. The GR value ([9]; 0.3162 µM) was 0.31 GR, the GR value ([9]; 1 µM) was 0.239 GR and the GR value ([9]; 3.162 µM) was 0.133 GR. It also gave a GR value ([10]; 0.0001 µM) of 0.922 GR, a GR value ([10]; 0.0003162 µM) of 1.03 GR and a GR value ([10]; 0.001 µM) of 1.04 GR. For the same cell line, the GR value ([10]; 0.003162 µM) was 0.998 GR, the GR value ([10]; 0.01 µM) was 1.07 GR and the GR value ([10]; 0.03162 µM) was 1.02 GR. The GR value ([10]; 0.1 µM) was 0.765 GR, the GR value ([10]; 0.3162 µM) was 0.0587 GR and the GR value ([10]; 1 µM) was -0.335 GR. For the same cell line, the GR value ([11]; 0.0001 µM) was 1.1 GR, the GR value ([11]; 0.0003162 µM) was 1.05 GR and the GR value ([11]; 0.001 µM) was 1.05 GR. For the same cell line, the GR value ([11]; 0.003162 µM) was 0.951 GR, the GR value ([11]; 0.01 µM) was 0.724 GR and the GR value ([11]; 0.03162 µM) was 0.452 GR. It also gave a GR value ([11]; 0.1 µM) of -0.224 GR, a GR value ([11]; 0.3162 µM) of -0.367 GR and a GR value ([11]; 1 µM) of -0.572 GR. It also gave a GR value ([12]; 0.0001 µM) of 0.986 GR, a GR value ([12]; 0.0003162 µM) of 0.927 GR and a GR value ([12]; 0.001 µM) of 0.962 GR. It also gave a GR value ([12]; 0.003162 µM) of 0.855 GR, a GR value ([12]; 0.01 µM) of 0.897 GR and a GR value ([12]; 0.03162 µM) of 0.814 GR. It also gave a GR value ([12]; 0.1 µM) of 0.591 GR, a GR value ([12]; 0.3162 µM) of 0.182 GR and a GR value ([12]; 1 µM) of -0.439 GR.
